ChEMBL document CHEMBL1143288, “(-)-Cercosporamide derivatives as novel antihyperglycemic agents” (Bioorg Med Chem Lett, 2009)
Active and inactive are the calls of the source. The rule behind the calls is not given here.

Legend:
Mus musculus [1] = experiment: Antihyperglycemic activity in hyperglycemic KK/Ta mouse assessed as change in plasma glucose level administered with diet in ratio of 0.1% for 1 week relative to control; assay type: functional
Mus musculus [2] = experiment: Antihyperglycemic activity in hyperglycemic KK/Ta mouse assessed as effect on body weight administered with diet in ratio of 0.1% for 1 week measured on day 7 relative to control; assay type: ADME, organism-based; conditions: in vivo, po, 168 h
Mus musculus [3] = experiment: Antihyperglycemic activity in hyperglycemic KK/Ta mouse assessed as effect on food intake administered with diet in ratio of 0.1% for 1 week measured on day 7 relative to control; assay type: ADME, organism-based; conditions: in vivo, po, 168 h
Mus musculus [4] = experiment: Antihyperglycemic activity in hyperglycemic KK/Ta mouse assessed as effect on body weight administered with diet in ratio of 0.03% for 1 week measured on day 7 relative to control; assay type: ADME, organism-based; conditions: in vivo, po, 168 h
Mus musculus [5] = experiment: Antihyperglycemic activity in hyperglycemic KK/Ta mouse assessed as effect on food intake administered with diet in ratio of 0.03% for 1 week measured on day 7 relative to control; assay type: ADME, organism-based; conditions: in vivo, po, 168 h
Mus musculus [6] = experiment: Antihyperglycemic activity in hyperglycemic KK/Ta mouse assessed as change in plasma glucose level administered with diet in ratio of 0.03% administered for 1 week relative to control; assay type: functional
[7] = biological target: T1, Protein kinase C alpha type (Homo sapiens, UniProt P17252); experiment: Inhibition of PKCalpha at 1 uM
[8] = biological target: T2, Protein kinase C beta type (Homo sapiens, UniProt P05771); experiment: Inhibition of PKCbeta1 at 1 uM
Target sequence in this assay (P05771 2-671 limits assumed): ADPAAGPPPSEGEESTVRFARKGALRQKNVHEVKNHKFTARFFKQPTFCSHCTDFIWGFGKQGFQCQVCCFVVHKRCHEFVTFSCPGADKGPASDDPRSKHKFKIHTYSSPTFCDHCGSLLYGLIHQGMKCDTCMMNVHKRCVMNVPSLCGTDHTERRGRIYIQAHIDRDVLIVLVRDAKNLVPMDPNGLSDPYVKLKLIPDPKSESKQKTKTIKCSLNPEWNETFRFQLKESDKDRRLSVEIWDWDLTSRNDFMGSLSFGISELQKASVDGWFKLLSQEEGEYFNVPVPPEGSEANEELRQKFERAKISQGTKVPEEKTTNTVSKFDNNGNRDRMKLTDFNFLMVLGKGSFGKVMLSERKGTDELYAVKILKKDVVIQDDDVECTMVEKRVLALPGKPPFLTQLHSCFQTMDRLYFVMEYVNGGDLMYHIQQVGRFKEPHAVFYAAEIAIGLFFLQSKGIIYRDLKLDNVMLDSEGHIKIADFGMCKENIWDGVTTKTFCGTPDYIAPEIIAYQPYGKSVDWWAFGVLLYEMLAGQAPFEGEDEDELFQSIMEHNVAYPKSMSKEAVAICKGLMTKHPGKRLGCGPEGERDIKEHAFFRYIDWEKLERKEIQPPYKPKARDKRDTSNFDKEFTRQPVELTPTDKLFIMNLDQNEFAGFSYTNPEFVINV

[9] = biological target: Protein kinase C delta type (Homo sapiens) (UniProt Q05655); experiment: Inhibition of PKCdelta at 1 uM
Chain of Protein kinase C delta type (Homo sapiens) (Q05655 whole entry, looked up): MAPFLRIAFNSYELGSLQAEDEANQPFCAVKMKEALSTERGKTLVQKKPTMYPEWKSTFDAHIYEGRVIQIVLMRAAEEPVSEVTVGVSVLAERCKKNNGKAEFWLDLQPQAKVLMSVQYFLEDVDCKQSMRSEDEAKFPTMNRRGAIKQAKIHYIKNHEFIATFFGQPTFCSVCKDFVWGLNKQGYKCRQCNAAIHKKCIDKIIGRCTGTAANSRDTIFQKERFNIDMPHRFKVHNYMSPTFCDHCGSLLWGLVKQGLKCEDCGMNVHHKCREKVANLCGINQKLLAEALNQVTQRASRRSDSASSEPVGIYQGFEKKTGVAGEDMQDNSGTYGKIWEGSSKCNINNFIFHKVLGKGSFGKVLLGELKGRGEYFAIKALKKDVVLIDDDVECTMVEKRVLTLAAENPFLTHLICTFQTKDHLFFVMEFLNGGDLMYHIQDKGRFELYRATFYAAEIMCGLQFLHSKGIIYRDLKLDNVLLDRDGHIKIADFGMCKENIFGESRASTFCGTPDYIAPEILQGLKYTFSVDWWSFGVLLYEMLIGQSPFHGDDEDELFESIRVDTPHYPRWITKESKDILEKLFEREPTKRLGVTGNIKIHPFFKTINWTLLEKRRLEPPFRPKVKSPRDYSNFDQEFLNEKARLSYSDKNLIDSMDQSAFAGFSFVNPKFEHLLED

[10] = biological target: T3, Protein kinase C epsilon type (Homo sapiens) (UniProt Q02156); experiment: Inhibition of PKCepsilon at 1 uM
T3 sequence (whole entry): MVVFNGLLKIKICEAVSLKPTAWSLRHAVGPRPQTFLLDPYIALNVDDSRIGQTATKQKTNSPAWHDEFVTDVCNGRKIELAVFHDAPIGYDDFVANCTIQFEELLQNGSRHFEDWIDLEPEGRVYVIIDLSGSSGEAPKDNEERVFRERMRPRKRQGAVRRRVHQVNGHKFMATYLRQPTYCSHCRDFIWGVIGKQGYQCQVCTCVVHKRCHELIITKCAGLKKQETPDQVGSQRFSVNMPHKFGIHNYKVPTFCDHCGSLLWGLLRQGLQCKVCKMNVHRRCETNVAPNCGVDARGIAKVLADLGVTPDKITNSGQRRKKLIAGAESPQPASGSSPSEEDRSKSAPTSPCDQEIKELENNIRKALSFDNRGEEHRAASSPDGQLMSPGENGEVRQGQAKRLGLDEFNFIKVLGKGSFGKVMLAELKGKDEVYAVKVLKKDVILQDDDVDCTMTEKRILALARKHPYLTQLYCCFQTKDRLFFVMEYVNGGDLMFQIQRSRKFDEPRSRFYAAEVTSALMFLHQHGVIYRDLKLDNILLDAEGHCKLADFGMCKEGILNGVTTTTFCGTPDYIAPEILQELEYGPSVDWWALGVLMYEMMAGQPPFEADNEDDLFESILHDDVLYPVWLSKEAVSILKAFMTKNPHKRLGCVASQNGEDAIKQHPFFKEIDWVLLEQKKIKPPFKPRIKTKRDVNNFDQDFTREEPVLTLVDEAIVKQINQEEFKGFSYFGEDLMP

[11] = biological target: Protein kinase C eta type (Homo sapiens) (UniProt P24723); experiment: Inhibition of PKCeta at 1 uM
Chain of Protein kinase C eta type (Homo sapiens) (P24723 whole entry): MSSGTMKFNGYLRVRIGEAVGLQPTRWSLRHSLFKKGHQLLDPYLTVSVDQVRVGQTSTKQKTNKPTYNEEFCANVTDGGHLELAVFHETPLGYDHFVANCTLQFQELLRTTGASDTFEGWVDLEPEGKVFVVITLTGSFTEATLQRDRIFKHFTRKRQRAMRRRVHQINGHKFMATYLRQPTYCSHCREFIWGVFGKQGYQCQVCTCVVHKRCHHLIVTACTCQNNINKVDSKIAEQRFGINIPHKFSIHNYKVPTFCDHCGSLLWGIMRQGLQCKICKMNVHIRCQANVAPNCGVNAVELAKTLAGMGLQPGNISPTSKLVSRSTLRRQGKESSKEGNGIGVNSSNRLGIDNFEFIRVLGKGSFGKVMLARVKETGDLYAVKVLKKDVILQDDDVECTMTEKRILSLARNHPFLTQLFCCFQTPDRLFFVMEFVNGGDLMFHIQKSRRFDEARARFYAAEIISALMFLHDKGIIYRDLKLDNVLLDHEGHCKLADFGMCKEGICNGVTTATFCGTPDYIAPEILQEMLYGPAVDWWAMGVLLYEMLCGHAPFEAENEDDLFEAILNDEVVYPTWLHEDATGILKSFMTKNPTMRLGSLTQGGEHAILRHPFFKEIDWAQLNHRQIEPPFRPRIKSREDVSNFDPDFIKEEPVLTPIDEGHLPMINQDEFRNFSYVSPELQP

[12] = biological target: T4, Protein kinase C zeta type (Homo sapiens) (UniProt Q05513); experiment: Inhibition of PKCzeta at 1 uM
T4 sequence (whole entry): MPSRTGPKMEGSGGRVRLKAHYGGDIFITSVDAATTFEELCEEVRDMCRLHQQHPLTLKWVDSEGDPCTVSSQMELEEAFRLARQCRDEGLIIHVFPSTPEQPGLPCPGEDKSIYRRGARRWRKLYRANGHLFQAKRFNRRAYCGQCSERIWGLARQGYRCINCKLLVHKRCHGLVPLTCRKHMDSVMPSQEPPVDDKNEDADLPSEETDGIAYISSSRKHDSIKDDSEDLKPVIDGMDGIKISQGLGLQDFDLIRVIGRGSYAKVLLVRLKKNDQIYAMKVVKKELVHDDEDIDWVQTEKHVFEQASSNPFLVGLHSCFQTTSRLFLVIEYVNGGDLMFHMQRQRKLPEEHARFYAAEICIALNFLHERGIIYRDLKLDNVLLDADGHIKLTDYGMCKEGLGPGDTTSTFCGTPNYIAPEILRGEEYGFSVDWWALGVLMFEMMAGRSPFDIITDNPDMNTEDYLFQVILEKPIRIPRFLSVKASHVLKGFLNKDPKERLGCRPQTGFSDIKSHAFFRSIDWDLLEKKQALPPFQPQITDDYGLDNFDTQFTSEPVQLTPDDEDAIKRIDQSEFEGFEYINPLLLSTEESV

[13] = biological target: T2, Protein kinase C beta type; experiment: Inhibition of PKCbeta2 at 1 uM
Target sequence in this assay (P05771 2-671 limits assumed): as the sequence (P05771 2-671 limits assumed) above

Protein kinase C-like 1 = biological target: T5, Protein kinase C-like 1 (Candida albicans, UniProt P43057); experiment: Inhibition of Candida albicans Pkc1 expressed in insect Sf9 cells by scintillation proximity assay
T5 sequence (P43057 whole entry): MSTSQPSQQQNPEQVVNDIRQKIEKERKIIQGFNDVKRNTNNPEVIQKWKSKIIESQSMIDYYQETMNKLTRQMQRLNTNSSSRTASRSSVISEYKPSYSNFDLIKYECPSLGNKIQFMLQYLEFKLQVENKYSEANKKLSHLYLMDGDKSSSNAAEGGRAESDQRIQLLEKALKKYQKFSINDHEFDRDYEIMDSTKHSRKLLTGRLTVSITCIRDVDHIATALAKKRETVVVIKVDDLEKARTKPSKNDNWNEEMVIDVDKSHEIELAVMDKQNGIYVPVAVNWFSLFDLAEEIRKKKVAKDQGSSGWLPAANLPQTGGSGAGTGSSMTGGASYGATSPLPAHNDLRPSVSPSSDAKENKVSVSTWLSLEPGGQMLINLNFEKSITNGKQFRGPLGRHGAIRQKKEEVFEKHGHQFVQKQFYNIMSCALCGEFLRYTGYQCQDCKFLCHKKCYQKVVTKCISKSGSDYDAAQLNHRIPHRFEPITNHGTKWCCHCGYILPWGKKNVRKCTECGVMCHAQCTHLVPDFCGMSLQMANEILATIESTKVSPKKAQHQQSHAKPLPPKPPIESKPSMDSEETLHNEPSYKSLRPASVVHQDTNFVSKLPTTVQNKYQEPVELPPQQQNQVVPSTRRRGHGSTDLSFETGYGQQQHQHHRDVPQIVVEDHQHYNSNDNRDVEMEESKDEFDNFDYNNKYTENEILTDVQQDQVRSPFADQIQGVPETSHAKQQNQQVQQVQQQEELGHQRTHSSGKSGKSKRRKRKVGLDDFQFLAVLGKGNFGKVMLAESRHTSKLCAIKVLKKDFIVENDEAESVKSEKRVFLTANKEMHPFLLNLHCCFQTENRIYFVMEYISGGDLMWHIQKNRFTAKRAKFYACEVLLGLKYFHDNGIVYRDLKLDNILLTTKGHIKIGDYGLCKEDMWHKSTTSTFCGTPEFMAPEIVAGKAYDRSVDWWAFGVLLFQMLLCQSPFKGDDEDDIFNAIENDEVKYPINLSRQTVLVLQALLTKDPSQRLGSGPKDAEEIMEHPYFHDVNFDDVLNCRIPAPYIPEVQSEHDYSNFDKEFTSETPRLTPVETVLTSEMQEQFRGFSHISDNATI

[14] = biological target: T2, Protein kinase C beta type; experiment: Inhibition of human PKCbeta by scintillation proximity assay
Target sequence in this assay (P05771 whole entry): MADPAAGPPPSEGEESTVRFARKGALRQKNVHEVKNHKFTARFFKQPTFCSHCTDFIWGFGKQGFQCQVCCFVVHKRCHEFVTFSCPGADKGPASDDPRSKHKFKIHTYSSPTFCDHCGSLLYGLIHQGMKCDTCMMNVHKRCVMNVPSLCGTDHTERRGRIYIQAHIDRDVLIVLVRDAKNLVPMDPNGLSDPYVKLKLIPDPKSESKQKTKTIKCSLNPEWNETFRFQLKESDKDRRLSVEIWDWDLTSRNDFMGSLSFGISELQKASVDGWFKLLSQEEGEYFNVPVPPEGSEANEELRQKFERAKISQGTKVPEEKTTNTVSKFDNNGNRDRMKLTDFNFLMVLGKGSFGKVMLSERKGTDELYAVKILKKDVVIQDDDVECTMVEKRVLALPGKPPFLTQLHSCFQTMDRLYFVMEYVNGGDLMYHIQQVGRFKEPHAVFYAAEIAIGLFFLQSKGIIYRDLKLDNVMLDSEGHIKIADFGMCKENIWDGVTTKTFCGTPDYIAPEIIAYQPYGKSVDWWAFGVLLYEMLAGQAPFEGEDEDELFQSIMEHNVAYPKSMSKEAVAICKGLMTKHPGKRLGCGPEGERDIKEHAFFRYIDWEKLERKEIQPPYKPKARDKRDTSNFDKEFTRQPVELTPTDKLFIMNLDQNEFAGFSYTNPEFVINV

[15] = biological target: Protein kinase C gamma type (Homo sapiens, UniProt P05129); experiment: Inhibition of human PKCgamma by scintillation proximity assay
[16] = biological target: T1, Protein kinase C alpha type; experiment: Inhibition of human PKCalpha by scintillation proximity assay
Mus musculus [17] = experiment: Antihyperglycemic activity in hyperglycemic KK/Ta mouse assessed as plasma glucose level administered with diet in ratio of 0.003% for 1 week; assay type: functional
Mus musculus [18] = experiment: Antihyperglycemic activity in hyperglycemic KK/Ta mouse assessed as body weight administered with diet in ratio of 0.003% for 1 week measured on day 7; assay type: ADME, organism-based; conditions: in vivo, po, 168 h
Mus musculus [19] = experiment: Antihyperglycemic activity in hyperglycemic KK/Ta mouse assessed as food intake administered with diet in ratio of 0.003% for 1 week measured on day 7; assay type: ADME, organism-based; conditions: in vivo, po, 168 h
Mus musculus [20] = experiment: Antihyperglycemic activity in hyperglycemic KK/Ta mouse assessed as plasma glucose level administered with diet in ratio of 0.01% for 1 week; assay type: functional
Mus musculus [21] = experiment: Antihyperglycemic activity in hyperglycemic KK/Ta mouse assessed as body weight administered with diet in ratio of 0.01% for 1 week measured on day 7; assay type: ADME, organism-based; conditions: in vivo, po, 168 h
Mus musculus [22] = experiment: Antihyperglycemic activity in hyperglycemic KK/Ta mouse assessed as food intake administered with diet in ratio of 0.01% for 1 week measured on day 7; assay type: ADME, organism-based; conditions: in vivo, po, 168 h
Mus musculus [23] = experiment: Antihyperglycemic activity in hyperglycemic KK/Ta mouse assessed as plasma glucose level administered with diet in ratio of 0.03% for 1 week; assay type: functional
Mus musculus [24] = experiment: Antihyperglycemic activity in hyperglycemic KK/Ta mouse assessed as body weight administered with diet in ratio of 0.03% for 1 week measured on day 7; assay type: ADME, organism-based; conditions: in vivo, po, 168 h
Mus musculus [25] = experiment: Antihyperglycemic activity in hyperglycemic KK/Ta mouse assessed as food intake administered with diet in ratio of 0.03% for 1 week measured on day 7; assay type: ADME, organism-based; conditions: in vivo, po, 168 h
Mus musculus [26] = experiment: Antihyperglycemic activity in hyperglycemic KK/Ta mouse assessed as plasma glucose level administered with diet in ratio of 0.1% for 1 week; assay type: functional
Mus musculus [27] = experiment: Antihyperglycemic activity in hyperglycemic KK/Ta mouse assessed as body weight administered with diet in ratio of 0.1% for 1 week measured on day 7; assay type: ADME, organism-based; conditions: in vivo, po, 168 h
Mus musculus [28] = experiment: Antihyperglycemic activity in hyperglycemic KK/Ta mouse assessed as food intake administered with diet in ratio of 0.1% for 1 week measured on day 7; assay type: ADME, organism-based; conditions: in vivo, po, 168 h

Structure (SMILES) | Activity (Mus musculus [3]) [%] | Activity (Mus musculus [5]) [%] | Activity (Mus musculus [1]) [%] | Activity (Mus musculus [2]) [%] | Activity (Mus musculus [4]) [%] | Activity (Mus musculus [6]) [%] | also measured
COc1cc(O)c2c(c1C(N)=O)OC1=CC(O)=C(C(C)=O)C(=O)[C@]12C | 37 | – | 70 | 83 | – | – | –
CC(=O)C1=C(O)C=C2Oc3c4c(cc(O)c3[C@]2(C)C1=O)OC(C)(c1ccccc1)NC4=O (stereo partly specified) | – | 94 | – | – | 100 | 54 | –
CC(=O)C1=C(O)C=C2Oc3c4c(cc(O)c3[C@]2(C)C1=O)OC1(CCCCC1)NC4=O | – | 104 | – | – | 104 | 38 | –
CC(=O)C1=C(O)C=C2Oc3c4c(cc(O)c3[C@]2(C)C1=O)OC(C)(C)NC4=O | 78 | 92 | 56 | 102 | 102 | 35 | Activity [7]: inactive; Activity [8]: inactive; Activity [9]: inactive; Activity [10]: inactive; Activity [11]: inactive; Activity [12]: inactive; Activity [13]: inactive
CC(=O)C1=C(O)C=C2Oc3c(C(N)=O)c(O)cc(O)c3[C@]2(C)C1=O | 34 | – | 71 | 83 | – | – | IC50 (Protein kinase C-like 1): 44 nM; IC50 [14]: 350 nM; IC50 [15]: 5800 nM; IC50 [16]: 1020 nM; Activity (Mus musculus [17]): 571 mg/dL; Activity (Mus musculus [18]): 48.4 g; Activity (Mus musculus [19]): 5.78 g/day; Activity (Mus musculus [20]): 408 mg/dL; Activity (Mus musculus [21]): 47 g; Activity (Mus musculus [22]): 4.81 g/day; Activity (Mus musculus [23]): 272 mg/dL; Activity (Mus musculus [24]): 45.9 g; Activity (Mus musculus [25]): 3.65 g/day; Activity (Mus musculus [26]): 176 mg/dL; Activity (Mus musculus [27]): 39.1 g; Activity (Mus musculus [28]): 1.89 g/day

The next lines start with results.

Activity (Mus musculus [3]) [%] | Activity (Mus musculus [5]) [%] | Structure (SMILES) | Activity (Mus musculus [1]) [%] | Activity (Mus musculus [2]) [%] | Activity (Mus musculus [4]) [%] | Activity (Mus musculus [6]) [%] | also measured
111 | – | CC(=O)C1=C(O)CC2Oc3c(C(N)=O)c(O)cc(O)c3[C@]2(C)C1=O (stereo partly specified) | 29 | 101 | – | – | –
92 | – | COc1cc(OC)c2c(c1C(N)=O)OC1=CC(O)=C(C(C)=O)C(=O)[C@]12C | 26 | 100 | – | – | –
– | 106 | CC(=O)C1=C(O)C=C2Oc3c4c(cc(O)c3[C@]2(C)C1=O)OC1(CCCC1)NC4=O | – | – | 102 | 7 | –
126 | – | CC1=NOC2C=C3Oc4c(C(N)=O)c(O)cc(O)c4[C@]3(C)C(=O)C12 (stereo partly specified) | 1 | 102 | – | – | –
95 | – | COc1cc(OC)c2c(c1C(=O)N(C)C)OC1=CC(O)=C(C(C)=O)C(=O)[C@]12C | 14 | 96 | – | – | –
